We go through seven molecules from ChEMBL document CHEMBL3632490, “Cytotoxic Barrigenol-like Triterpenoids from an Extract of Cyrilla racemiflora Housed in a Repository” (J Nat Prod, 2015).

Some results are limits rather than exact numbers.

The test system of the first test is HT-29. The test is described as follows: Cytotoxicity against human HT-29 cells assessed as inhibition of cell viability after 3 days by sulforhodamine B assay. In kind it is functional, cell-based. As to conditions: HT-29, 72 h. (The SRB assay estimates cell density from bound dye.)
One may read the IC50 as the midpoint of a concentration-inhibition curve. `CC1(C)C[C@H]2C3=CC[C@@H]4[C@@]5(C)C=CC(=O)C(C)(C)[C@@H]5CC[C@@]4(C)[C@]3(C)C[C@@H](O)[C@@]2(CO)[C@@H](O)[C@@H]1O`: the IC50 was > 10 µM. Regarding `C/C=C(/C)C(=O)O[C@@H]1[C@@H](O)[C@H](O[C@H]2CC(C)(C)C[C@H]3C4=CC[C@@H]5[C@@]6(C)C=C[C@H](O)C(C)(C)[C@@H]6CC[C@@]5(C)[C@]4(C)C[C@@H](O)[C@@]23CO)O[C@H](CO)[C@H]1OC(=O)/C(C)=C\C`, the IC50 is > 10 µM.

For `C/C=C(/C)C(=O)O[C@H]1[C@H](OC(C)=O)[C@]2(CO)[C@H](O)C[C@]3(C)C(=CC[C@@H]4[C@@]5(C)CC[C@H](O)C(C)(C)[C@@H]5CC[C@]43C)[C@@H]2CC1(C)C`, the IC50 is 7.8 µM. The same measure, in the same setting: under `C/C=C(/C)C(=O)O[C@H]1CC(C)(C)C[C@H]2C3=CC[C@@H]4[C@@]5(C)CC[C@H](O)C(C)(C)[C@@H]5CC[C@@]4(C)[C@]3(C)[C@@H](O)[C@@H](O)[C@@]12CO` stands 8.7 µM; under `C/C=C(/C)C(=O)O[C@H]1[C@H](O)C(C)(C)C[C@H]2C3=CC[C@@H]4[C@@]5(C)CC[C@H](O)C(C)(C)[C@@H]5CC[C@@]4(C)[C@]3(C)[C@@H](O)[C@@H](O)[C@]21CO`, > 10 µM; under `C/C=C(/C)C(=O)O[C@H]1[C@H](O)[C@]2(CO)[C@H](O)C[C@]3(C)C(=CC[C@@H]4[C@@]5(C)CC[C@H](O)C(C)(C)[C@@H]5CC[C@]43C)[C@@H]2CC1(C)C`, 1.7 µM.

System in another test: not listed separately
Put plainly: Cytotoxicity against human CCD-112CoN cells assessed as inhibition of cell viability after 3 days by sulforhodamine B assay. In kind it is cell-based. As to conditions: 72 h.
On to `C/C=C(/C)C(=O)O[C@H]1[C@H](O)[C@]2(CO)[C@H](O)C[C@]3(C)C(=CC[C@@H]4[C@@]5(C)CC[C@H](O)C(C)(C)[C@@H]5CC[C@]43C)[C@@H]2CC1(C)C`, for which the IC50 was 5.9 µM. On the same count and under the same terms, as for `CC(=O)O[C@H]1C(=O)[C@@]2(C)[C@H]([C@H](OC(=O)c3ccccc3)[C@]3(O)C[C@H](OC(=O)[C@H](O)[C@@H](NC(=O)c4ccccc4)c4ccccc4)C(C)=C1C3(C)C)[C@]1(OC(C)=O)CO[C@@H]1C[C@@H]2O` [PACLITAXEL], the figure is 19.3 µM.
